Test results as given in the OPERA property sets (Mansouri et al. 2018).

Conditions: for log10 BCF / log10 biotransformation half-life (days): fish

SMILES: O=c1cc[nH]c2cc(C(F)(F)F)ccc12
- melting point: 268 °C

SMILES: FC(Cl)(Cl)c1ccccc1
- boiling point: 179 °C
- melting point: -26.8 °C

SMILES: CCCOc1ccc2[nH]c(NC(=O)OC)nc2c1
- melting point: 230 °C

SMILES: CS
- boiling point: 5.9 °C
- log10 vapour pressure (mmHg): 3.18
- melting point: -123 °C
- ready biodegradability: readily biodegradable

SMILES: OC1[C@@H](O)[C@H](O)C[C@@H](O)[C@@H]1O (stereo partly drawn)
- melting point: 236 °C

SMILES: OC1CCOC1 (stereo not drawn)
- boiling point: 181 °C

SMILES: CCCCCCCCCCCCCCCC(=O)OCCC
- melting point: 20.4 °C

SMILES: Clc1ccc(Oc2cc(Cl)cc(Cl)c2)cc1
- log10 vapour pressure (mmHg): -3.76

SMILES: CC(C)(CC(=O)O)c1ccccc1
- melting point: 60 °C

SMILES: O=C1OC(=O)C2CCCCC12 (stereo not drawn)
- ready biodegradability: not readily biodegradable

SMILES: C=Cc1ccncc1
- log10 Koc (L/kg): 1.18
- log10 vapour pressure (mmHg): 0.23
- ready biodegradability: not readily biodegradable
- log10 BCF: 1.86

SMILES: CC1CC(=O)C(C)(C)C1 (stereo not drawn)
- boiling point: 158 °C
- melting point: -40.6 °C

SMILES: CCC(C)(C)c1cc(O)c(C(C)(C)CC)cc1O
- melting point: 180 °C

SMILES: COc1ccc(CO)cc1OC
- boiling point: 298 °C

SMILES: S=C=Nc1ccc(N=C=S)cc1
- melting point: 132 °C

SMILES: COP(=S)(OC)Oc1cc(Cl)c(I)cc1Cl
- log10 vapour pressure (mmHg): -6.08
- melting point: 72.5 °C
- log10 BCF: 3.62
- log10 biotransformation half-life (days): 0.86

SMILES: Clc1ccc(Cc2ccc(Cl)cc2)cc1
- melting point: 55.5 °C

SMILES: COc1ncnc(NS(=O)(=O)c2ccc(N)cc2)c1OC
- melting point: 192 °C

SMILES: c1ccc2c(c1)C1c3ccccc3C2c2ccccc21
- melting point: 254 °C

SMILES: C[C@]12CC[C@H]3C(=CCc4cc(O)ccc43)[C@@H]1CCC2=O
- melting point: 239 °C

SMILES: C=CCOC(=O)OCC=C
- boiling point: 142 °C
- log10 vapour pressure (mmHg): -0.991

SMILES: FC(F)(F)c1ccc(Cl)cc1
- boiling point: 138 °C
- log10 vapour pressure (mmHg): 0.882
- melting point: -33 °C

SMILES: CC(Cl)CCCl (stereo not drawn)
- boiling point: 134 °C

SMILES: Cc1ccccc1C(=O)c1ccccc1
- boiling point: 308 °C

SMILES: BrC1CCC(Br)C(Br)CCC(Br)C(Br)CCC1Br (stereo not drawn)
- log10 vapour pressure (mmHg): -6.33
- ready biodegradability: not readily biodegradable

SMILES: C[C@H](CCC(=O)O)[C@H]1CC[C@H]2[C@@H]3[C@H](O)C[C@@H]4C[C@H](O)CC[C@]4(C)[C@H]3C[C@H](O)[C@]12C
- melting point: 198 °C

SMILES: CC(Br)C(C)Br (stereo not drawn)
- boiling point: 161 °C
- log10 vapour pressure (mmHg): 0.58
- melting point: -24 °C

SMILES: CC(=O)C(N=Nc1ccc(-c2ccc(N=NC(C(C)=O)C(=O)Nc3ccccc3C)c(Cl)c2)cc1Cl)C(=O)Nc1ccccc1C (stereo not drawn)
- ready biodegradability: not readily biodegradable

SMILES: O=c1oc2ccccc2c(O)c1C1CC(c2ccc(-c3ccccc3)cc2)Cc2ccccc21 (stereo not drawn)
- melting point: 216 °C

SMILES: O=C1c2ccccc2CCc2ccccc21
- melting point: 30 °C

SMILES: c1ccc(Cc2ccc(-c3ccccc3)cc2)cc1
- melting point: 85 °C

SMILES: Cc1ccc(C)c2ccccc12
- boiling point: 268 °C
- log10 biodegradation half-life (days): 1.18
- log10 vapour pressure (mmHg): -1.67
- melting point: 7.6 °C

SMILES: Nc1ccc(Cl)c(Cl)c1Cl
- boiling point: 292 °C
- log10 Koc (L/kg): 2.6
- melting point: 73 °C
- log10 BCF: 2
- log10 biotransformation half-life (days): -0.27

SMILES: CC(=O)[C@@]1(O)[C@H](O)C[C@H]2[C@@H]3CCC4=CC(=O)CC[C@]4(C)[C@H]3CC[C@@]21C
- melting point: 225 °C

SMILES: CC(CCO)C(F)(F)F (stereo not drawn)
- boiling point: 140 °C

SMILES: CC(C)c1cccs1
- boiling point: 153 °C

SMILES: Oc1ccccc1C=NCCN=Cc1ccccc1O
- melting point: 128 °C

SMILES: CCC(=O)c1ccc(Br)cc1
- melting point: 48 °C

SMILES: N#C/C=C(\Cl)C#N
- boiling point: 172 °C
- melting point: 60.5 °C

SMILES: ClC(Cl)(Cl)CC(Cl)(Cl)Cl
- boiling point: 206 °C
- melting point: -27 °C

SMILES: Cc1cccc2c1CCCC2
- boiling point: 234 °C
- melting point: -23 °C

SMILES: O=c1cnn([C@@H]2O[C@H](CO)[C@@H](O)[C@H]2O)c(=O)[nH]1
- melting point: 158 °C

SMILES: C(CC1CCNCC1)CC1CCNCC1
- boiling point: 329 °C
- melting point: 67.1 °C

SMILES: CN1CCN(CCCN2c3ccccc3Sc3ccc(Cl)cc32)CC1
- melting point: 228 °C

SMILES: C=CC(=O)O
- boiling point: 141 °C
- log10 vapour pressure (mmHg): 0.599
- melting point: 13.5 °C
- ready biodegradability: readily biodegradable

SMILES: COP1(=S)OCc2ccccc2O1 (stereo not drawn)
- ready biodegradability: not readily biodegradable
- log10 BCF: 1.31
- log10 biotransformation half-life (days): -1.15

SMILES: Oc1ccccc1F
- boiling point: 152 °C
- log10 Henry constant (atm·m³/mol): -5.49
- melting point: 16.1 °C
- ready biodegradability: not readily biodegradable

SMILES: Cc1ccc(Br)cc1
- boiling point: 184 °C
- log10 Henry constant (atm·m³/mol): -2.63
- log10 vapour pressure (mmHg): 0.0607
- melting point: 28.5 °C

SMILES: CCN(CC)c1cccc2ccccc12
- boiling point: 285 °C

SMILES: O=C=NCCCCCCN=C=O
- boiling point: 255 °C
- melting point: -67 °C

SMILES: COc1cc2c(c(O)c1OC)CNCC2
- melting point: 188 °C

SMILES: Cc1cc2nc3c(=O)[nH]c(=O)nc-3n(C[C@H](O)[C@H](O)[C@H](O)CO)c2cc1C
- ready biodegradability: not readily biodegradable

SMILES: CCCCCCCBr
- boiling point: 179 °C
- log10 vapour pressure (mmHg): 0.105
- melting point: -58 °C

SMILES: COc1ccc(C2C(=O)c3ccccc3C2=O)cc1
- melting point: 156 °C

SMILES: N#CC1CCCCC1
- melting point: 11 °C

SMILES: C1CCCCCCCCCCC1
- boiling point: 247 °C
- melting point: 60.4 °C
- ready biodegradability: not readily biodegradable
- log10 BCF: 3.91
- log10 biotransformation half-life (days): 1.33

SMILES: Cc1cccs1
- boiling point: 113 °C
- log10 Henry constant (atm·m³/mol): -2.62
- log10 vapour pressure (mmHg): 1.4
- melting point: -63.4 °C

SMILES: Cc1ccc(S(=O)(=O)NC(=O)NC2CCCCC2)cc1
- melting point: 175 °C

SMILES: CCOC(=O)c1cccc(OC)c1
- boiling point: 260 °C
